According to patent publication US8158792B2, “Spiropiperidines for use as tryptase inhibitors” (Janssen Pharmaceutica N.V., priority 2007, dated 2012):

Molecular target: human lung tryptase
Experiment: β-Tryptase In-Vitro Enzyme Assay
Format: biochemical
Details: human lung tryptase 1 nM, substrate H-D-HHT-Ala-Arg-pNa 500 μM, pH 7.4, room temperature
Description: The β-tryptase assay was conducted with human lung tryptase (Cortex Biochem #CP3033) in an aqueous buffer (10 mM Tris, 10 mM Hepes, 150 mM NaCl, 0.1% PEG 8000, pH 7.4) using the chromogenic substrate H-D-HHT-Ala-Arg-pNa. […] Percent inhibition was calculated by comparing the initial reaction velocity of samples without inhibitor to those with inhibitor. The initial reaction velocities were analyzed using Microsoft Excel.

SMILES | IC50
NCc1ccc2c(c1)C1(CCN(C(=O)c3ccc(C#Cc4ccccc4)o3)CC1)CN2CCC(=O)O [Cpd 322, 1-(5-phenylethynyl-furan-2-yl)carbonyl-1′-(2-carboxy-ethyl)-5′-aminomethyl-spiro[piperidine-4,3′-(2H)-indole]] | 450 nM
NCc1ccc2c(c1)C1(CCN(C(=O)/C=C/c3ccc(Cl)c(Cl)c3)CC1)CO2 [Cpd 116, (E)-1-(3,4-dichloro-phenylethenyl)carbonyl-5′-aminomethyl-spiro[piperidine-4,3′-(2H)-benzo[b]furan]] | 290 nM
NCc1ccc2c(c1)C1(CCN(C(=O)c3cc4ccccc4oc3=O)CC1)CO2 [Cpd 196, 1-(2-oxo-(2H)-chromen-3-yl)carbonyl-5′-aminomethyl-spiro[piperidine-4,3′-(2H)-benzo[b]furan]] | 680 nM
NCc1ccc2c(c1)C1(CCN(C(=O)CC(c3ccccc3)c3ccccc3)CC1)CO2 [Cpd 354, 1-(2,2-diphenylethyl)carbonyl-5′-aminomethyl-spiro[piperidine-4,3′-(2H)-benzo[b]furan]] | 430 nM
NCc1ccc2c(c1)C1(CCN(C(=O)Cc3ccc(-c4ccccc4)cc3)CC1)CO2 [Cpd 92, 1-(4-phenyl-benzyl)carbonyl-5′-aminomethyl-spiro[piperidine-4,3′-(2H)-benzo[b]furan]] | 490 nM
COc1ccc(C(=O)N2CCC3(CC2)COc2ccc(CN)cc23)cc1OC [Cpd 40, 1-(3,4-dimethoxy-phenyl)carbonyl-5′-aminomethyl-spiro[piperidine-4,3′-(2H)-benzo[b]furan]] | 250 nM
COc1ccc(C(=O)N2CCC3(CC2)COc2ccc(CN)cc23)cc1 [Cpd 54, 1-(4-methoxy-phenyl)carbonyl-5′-aminomethyl-spiro[piperidine-4,3′-(2H)-benzo[b]furan]] | 750 nM
NCc1ccc2c(c1)C1(CCN(C(=O)c3cncc(-c4ccccc4)c3)CC1)CO2 [Cpd 142, 1-(5-phenyl-pyridin-3-yl)carbonyl-5′-aminomethyl-spiro[piperidine-4,3′-(2H)-benzo[b]furan]] | 650 nM
NCc1ccc2c(c1)C1(CCN(C(=O)[C@@H]3C[C@H]3c3ccccc3)CC1)CO2 (relative stereo) [Cpd 141, 1-(trans-2-phenyl-cyclopropyl)carbonyl-5′-aminomethyl-spiro[piperidine-4,3′-(2H)-benzo[b]furan]] | 480 nM
NCc1ccc2c(c1)C1(CCN(C(=O)c3ccc4ncsc4c3)CC1)CO2 [Cpd 16, 1-benzothiazol-6-ylcarbonyl-5′-aminomethyl-spiro[piperidine-4,3′-(2H)-benzo[b]furan]] | 430 nM
NCc1ccc2c(c1)C1(CCN(C(=O)c3cc(Br)c(Br)s3)CC1)CN2S(=O)(=O)O [Cpd 351, 1-(4,5-dibromo-thien-2-yl)carbonyl-1′-hydroxysulfonyl-5′-aminomethyl-spiro[piperidine-4,3′-(2H)-indole]] | 68 nM
NCc1ccc2c(c1)C1(CCN(C(=O)c3ccc(Cl)c(Cl)c3)CC1)CS2 [Cpd 353, 1-(3,4-dichlorophenyl)carbonyl-5′-aminomethyl-spiro[piperidine-4,3′-(2H)-benzo[b]thiophene]] | 37 nM
NCc1ccc2c(c1)C1(CCN(Cc3ccc(Cl)c(Cl)c3)CC1)CO2 [Cpd 158, 1-(3,4-dichloro-benzyl)-5′-aminomethyl-spiro[piperidine-4,3′-(2H)-benzo[b]furan]] | 4500 nM
NCc1ccc2c(c1)C1(CCN(C(=O)c3cc4c(s3)CCCC4)CC1)CO2 [Cpd 163, 1-(5,6,7-trihydro-4H-benzo[b]thien-2-yl)carbonyl-5′-aminomethyl-spiro[piperidine-4,3′-(2H)-benzo[b]furan]] | 54 nM
NCc1ccc2c(c1)C1(CCN(C(=O)c3ccc(I)cc3)CC1)CO2 [Cpd 49, 1-(4-iodo-phenyl)carbonyl-5′-aminomethyl-spiro[piperidine-4,3′-(2H)-benzo[b]furan]] | 130 nM
NCc1ccc2c(c1)C1(CCN(C(=O)c3ccc(C#Cc4ccccc4)o3)CC1)CN2C(N)=O [Cpd 325, 1-(5-phenylethynyl-furan-2-yl)carbonyl-1′-aminocarbonyl-5′-aminomethyl-spiro[piperidine-4,3′-(2H)-indole]] | 25 nM
NCc1ccc2c(c1)C1(CCN(C(=O)c3cccc4c3C(=O)c3ccccc3-4)CC1)CO2 [Cpd 270, 1-(9-oxo-fluoren-1-yl)carbonyl-5′-aminomethyl-spiro[piperidine-4,3′-(2H)-benzo[b]furan]] | 6400 nM
NCc1ccc2c(c1)C1(CCN(C(=O)c3ccc(Br)s3)CC1)CO2 [Cpd 198, 1-(5-bromo-thien-2-yl)carbonyl-5′-aminomethyl-spiro[piperidine-4,3′-(2H)-benzo[b]furan]] | 73 nM
Cc1ccccc1Oc1cccc(CC(=O)N2CCC3(CC2)COc2ccc(CN)cc23)c1 [Cpd 208, 1-[3-(2-methyl-phenoxy)-benzyl]carbonyl-5′-aminomethyl-spiro[piperidine-4,3′-(2H)-benzo[b]furan]] | 12 nM

SMILES | IC50
NCc1ccc2c(c1)C1(CCN(C(=O)c3ccc(F)c(C(F)(F)F)c3)CC1)CO2 [Cpd 74, 1-(3-trifluoromethyl-4-fluoro-phenyl)carbonyl-5′-aminomethyl-spiro[piperidine-4,3′-(2H)-benzo[b]furan]] | 160 nM
CS(=O)(=O)N1CC2(CCN(C(=O)c3ccc(C#Cc4ccccc4)o3)CC2)c2cc(CN)ccc21 [Cpd 340, 1-(5-phenylethynyl-furan-2-yl)carbonyl-1′-methylsulfonyl-5′-aminomethyl-spiro[piperidine-4,3′-(2H)-indole]] | 1.8 nM
Cc1cccc(CCC(=O)N2CCC3(CC2)COc2ccc(CN)cc23)c1 [Cpd 98, 1-(3-methyl-phenethyl)carbonyl-5′-aminomethyl-spiro[piperidine-4,3′-(2H)-benzo[b]furan]] | 1700 nM
CSc1sc(C(=O)N2CCC3(CC2)COc2ccc(CN)cc23)c2c1C(=O)CCC2 [Cpd 155, 1-(3-methylthio-4-oxo-5,6,7-trihydro-4H-benzo[c]thien-1-yl)carbonyl-5′-aminomethyl-spiro[piperidine-4,3′-(2H)-benzo[b]furan]] | 12 nM
NCc1ccc2c(c1)C1(CCN(C(=O)c3ccc(OCc4ccccc4)cc3)CC1)CO2 [Cpd 76, 1-(4-benzyloxy-phenyl)carbonyl-5′-aminomethyl-spiro[piperidine-4,3′-(2H)-benzo[b]furan]] | 420 nM
NCc1ccc2c(c1)C1(CCN(C(=O)c3ccc(Br)cc3)CC1)CO2 [Cpd 59, 1-(4-bromo-phenyl)carbonyl-5′-aminomethyl-spiro[piperidine-4,3′-(2H)-benzo[b]furan]] | 360 nM
Cc1nc(-c2ccccc2)sc1C(=O)N1CCC2(CC1)COc1ccc(CN)cc12 [Cpd 123, 1-(2-phenyl-4-methyl-thiazol-5-yl)carbonyl-5′-aminomethyl-spiro[piperidine-4,3′-(2H)-benzo[b]furan]] | 690 nM
NCc1ccc2c(c1)C1(CCN(C(=O)c3ccc(C(F)(F)F)o3)CC1)CO2 [Cpd 22, 1-(5-trifluoromethyl-furan-2-yl)carbonyl-5′-aminomethyl-spiro[piperidine-4,3′-(2H)-benzo[b]furan]] | 2100 nM
COc1cccc(/C=C/C(=O)N2CCC3(CC2)COc2ccc(CN)cc23)c1 [Cpd 184, (E)-1-(3-methoxy-phenylethenyl)carbonyl-5′-aminomethyl-spiro[piperidine-4,3′-(2H)-benzo[b]furan]] | 210 nM
NCc1ccc2c(c1)C1(CCN(C(=O)/C=C/c3ccc(-c4ccccc4)cc3)CC1)CO2 [Cpd 117, (E)-1-(4-phenyl-phenylethenyl)carbonyl-5′-aminomethyl-spiro[piperidine-4,3′-(2H)-benzo[b]furan]] | 600 nM
COc1cccc(CCC(=O)N2CCC3(CC2)COc2ccc(CN)cc23)c1 [Cpd 101, 1-(3-methoxy-phenethyl)carbonyl-5′-aminomethyl-spiro[piperidine-4,3′-(2H)-benzo[b]furan]] | 2400 nM
COC(=O)c1ccc(S(=O)(=O)N2CC3(CCN(C(=O)c4ccc(C#Cc5ccccc5)o4)CC3)c3cc(CN)ccc32)o1 [Cpd 345, 1-(5-phenylethynyl-furan-2-yl)carbonyl-1′-(5-methoxycarbonyl-furan-2-yl)sulfonyl-5′-aminomethyl-spiro[piperidine-4,3′-(2H)-indole]] | 13 nM
NCc1ccc2c(c1)C1(CCN(C(=O)C#Cc3ccccc3)CC1)CO2 [Cpd 108, 1-(phenylethynyl)carbonyl-5′-aminomethyl-spiro[piperidine-4,3′-(2H)-benzo[b]furan]] | 250 nM
NCc1ccc2c(c1)C1(CCN(C(=O)c3cccc(NS(=O)(=O)c4ccccc4)c3)CC1)CO2 [Cpd 18, 1-(3-phenylsulfonylamino-phenyl)carbonyl-5′-aminomethyl-spiro[piperidine-4,3′-(2H)-benzo[b]furan]] | 3300 nM
NCc1ccc2c(c1)C1(CCN(C(=O)c3ccc(F)c(Cl)c3)CC1)CO2 [Cpd 27, 1-(3-chloro-4-fluoro-phenyl)carbonyl-5′-aminomethyl-spiro[piperidine-4,3′-(2H)-benzo[b]furan]] | 34 nM
COc1ccc(C(=O)N2CCC3(CC2)COc2ccc(CN)cc23)cc1Br [Cpd 32, 1-(3-bromo-4-methoxy-phenyl)carbonyl-5′-aminomethyl-spiro[piperidine-4,3′-(2H)-benzo[b]furan]] | 41 nM
Cn1nc(C(F)(F)F)cc1-c1ccc(C(=O)N2CCC3(CC2)COc2ccc(CN)cc23)s1 [Cpd 127, 1-[5-(1-methyl-3-trifluoromethyl-pyrazol-5-yl)-thien-2-yl]carbonyl-5′-aminomethyl-spiro[piperidine-4,3′-(2H)-benzo[b]furan]] | 3700 nM
N#Cc1cccc(C(=O)N2CCC3(CC2)COc2ccc(CN)cc23)c1 [Cpd 66, 1-(3-cyano-phenyl)carbonyl-5′-aminomethyl-spiro[piperidine-4,3′-(2H)-benzo[b]furan]] | 1900 nM
